# Columns and labels:
# [1] = tested on: OVCAR-3 human ovarian adenocarcinoma tumor fragment xenograft; assay: Pharmacodynamic testing in OVCAR-3 tumor fragment xenograft model; assay type: in vivo, BALB/c nude mice; settings: 16 days after administration; for Tumor volume (x ± S): mean ± standard error, in mm³
# Protocol: An anti-tumor effect of Compound 1 of the present invention in a BALB/c nude mouse animal model with subcutaneous OVCAR-3 human ovarian adenocarcinoma tumor fragment xenograft was evaluated.
# BALB/c nude mice, female, 6-7 weeks old, purchased from Jiangsu Gempharmatech Biotechnology Co., Ltd.
# Mice in a solvent control group were given DMA:CrEL:5% GS=10:10:80 (v:v:v).
# AMG650: a proper amount of AMG-650 was weighed, proper amounts of DMA, CrEL and 5% GS were added in sequence, and the obtained system was evenly mixed by ultrasonic vortex to prepare 0.8 mg/mL and 0.4 mg/mL preparations respectively, wherein DMA, CrEL and 5% GS=10:10:80 (v:v:v).
# Compound 1: a proper amount of Compound 1 was weighed, proper amounts of DMA, CrEL and 5% GS were added in sequence, and the obtained system was evenly mixed by ultrasonic vortex to prepare 0.8 mg/mL and 0.4 mg/mL preparations respectively, wherein DMA, CrEL and 5% GS=10:10:80 (v:v:v).
# An appropriate OVCAR-3 tumor-bearing animal was selected, a 1 mm×1 mm×1 mm OVCAR-3 tumor fragment was acquired aseptically and placed into normal saline for later use, which was used for subcutaneous tumor inoculation in a right side of back of the BALB/c nude mice.
# About 1 mm×1 mm×1 mm OVCAR-3 tumor fragment was subcutaneously inoculated in the right side of back of the female BALB/c nude mice. When an average tumor volume reached about 100-250 mm^3, the mice were randomly grouped according to the tumor size, with 6 mice in each group.
# Animals in each group were given the test compound once per day according to an animal weight at a fixed time every day by oral administration (po), the animals started to be administered with the test compound for the first time on the day of grouping for 22 consecutive days, and the animal weight was recorded every day. • The 1st group (G1) was a solvent control group; • The 2nd group (G2) and the 3rd group (G3) were orally administered with AMG-650 at administration dosages of 8 mg/kg and 4 mg/kg respectively once per day (QD); and • The 4th group (G4) and the 5th group (G5) were orally administered with Compound 1 at administration dosages of 8 mg/kg and 4 mg/kg respectively once per day (QD).
# Tumor formation at an inoculation site of the animals in each group was observed, and a tumor volume was measured twice per week, and calculated according to the following formula: • a tumor volume (TV), a relative tumor volume (RTV), a relative tumor proliferation rate (T/C) and a relative tumor inhibition rate (TGI) were calculated according to the following formulas:
# TV (tumor volume)=½×a×b^2, wherein a and b respectively represented a tumor length and a tumor width; (1)
# RTV (relative tumor volume)=Vt/V0, wherein V0 was a tumor volume measured at the time of grouping, and Vt was a tumor volume in each measurement; (2)
# T/C (%)=TRTV/CRTV×100%, wherein TRTV was RTV of a treatment group, and CRTV was RTV of a solvent control group; and (3)
# TGI %=(1−T/C)×100%, wherein T and C were relative tumor volumes of the treatment group and the solvent control group at a specific time point respectively. (4)
# HT-29 cells = assay: Inhibition on HT-29 cell proliferation (CellTiter-Glo); assay type: cell-based; settings: Homo sapiens, HT-29 cells (TP53 R273H mutation), 120 hours
# Protocol: (§1) Influences of the compounds of the present invention on HT-29 cell proliferation were determined by the following method. HT-29 cells (containing TP53 R273H mutation) were purchased from the Cell Bank of Shanghai Institute of Biochemistry and Cell Biology, Chinese Academy of Sciences, and cultured in a McCOY's 5A culture medium containing 10% fetal bovine serum, 100 U penicillin and 100 μg/mL streptomycin. A cell viability was determined by a CellTiter-Glo® Luminescent Cell Viability Assay kit (Promega, article number G7573).
# (§2) An experimental method was operated according to steps in the instruction of the kit, which was briefly described as follows: a test compound was dissolved in DMSO first to prepare a 10 mM stock solution, then the stock solution was diluted with the above McCOY's 5A culture medium to prepare a test sample, and a final concentration of the compound was in a range of 1000 nM-0.015 nM. Cells in a logarithmic growth phase were inoculated into a 96-well cell culture plate at a density of 1000 cells per well, cultured in a 5% CO2 incubator at 37° C. overnight, and then the test compound was added to continuously culture for 120 hours. After the culture was ended, 50 µL of CellTiter-Glo detection solution was added to each well, the plates were shaken for 5 minutes, and then allowed to stand for 10 minutes, and subsequently, a luminous value of each well of sample was read by a microplate reader in a Luminescence mode. By comparing with a numerical value of a control group (0.3% DMSO), a percentage inhibition rate of the compound at each concentration was calculated, and then nonlinear regression analysis was carried out based on concentration logarithm-inhibition rate of the compound in GraphPad Prism 5 software, so as to obtain an IC50 value of the compound in inhibition on cell proliferation, which are shown in Table 2.
# OVCAR-3 cells = assay: Inhibition on OVCAR-3 cell proliferation (CellTiter-Glo); assay type: cell-based; settings: Homo sapiens, OVCAR-3 cells (TP53 R248Q mutation), 72 hours
# Protocol: as §1, with “OVCAR-3” for “HT-29”, “R248Q” for “R273H”, “an RPMI 1640” for “a McCOY's 5A”, “[…]” for “10%”
# as §2, with “RPMI 1640” for “McCOY's 5A”, “72” for “120”, “μL” for “µL”, “1.” for “2.”
# [2] = Pharmacokinetic testing in mice; assay type: in vivo; settings: male, mouse, ICR mice, plasma; for half-life / Cmax: 10 mg/kg, oral administration (10 mg/mL); for half-life: read-out: Half-life period T½ (converted); for Cmax: read-out: Plasma concentration Cmax; for AUC(0-inf): oral administration (10 mg/kg), read-out: Area under the curve AUC0-∞
# Protocol: ICR mice were taken as test animals, and intragastrically administered with a control compound AMG650 and compounds 1, 18 and 29 of the present invention, and then drug concentrations in plasma at different moments were determined by an LC/MS/MS method, so as to study pharmacokinetic characteristics of the compounds of the present invention in the mice.
# Control compound AMG650, and Compounds 1, 18 and 29.
# ICR mice, male, 27.3-30.3 g, purchased from Vital River Laboratory Animal Technology Co., Ltd.
# A proper amount of to-be-tested compound was weighed, proper amounts of DMA (N,N-dimethylacetamide), CrEL (polyoxyethylene 35 castor oil) and 5% GS (5% glucose injection) were added in sequence, and the obtained system was evenly mixed by ultrasonic vortex to prepare a 1 mg/mL preparation, wherein DMA, CrEL and 5% GS=10:10:80 (v:v:v).
# ICR mice in each to-be-tested compound injection group (9 mice in each group) were fasted overnight and then intragastrically administered with the compound (PO, an administration dosage of the compound was 10 mg/kg and an administration volume of the compound was 10 mL/kg), and were fed 4 hours after administration.
# 0.25 hours, 0.5 hours, 1 hour, 2 hours, 4 hours, 8 hours, 10 hours and 24 hours before and after administration, about […] of blood was collected through an orbit, and a complete blood sample was placed in an EDTA-K2-containing anticoagulation tube. The collected blood sample was placed on ice, and plasma was centrifugally separated (centrifugation conditions: 1500 g, 10 minutes). The collected plasma was stored at −40~−20° C. before analysis.
# A content of the to-be-tested compound in the plasma of the mice after intragastric administration was determined by LC-MS/MS.
# recombinant human KIF18A = target: T1, recombinant human KIF18A (Homo sapiens, UniProt Q8NI77); assay: Inhibition on KIF18A enzyme activity (ADP-Glo); assay type: biochemical; settings: recombinant human KIF18A 100 nM, ATP 60 μM
# T1 construct: purchased GenScript
# T1 sequence (Q8NI77 whole entry): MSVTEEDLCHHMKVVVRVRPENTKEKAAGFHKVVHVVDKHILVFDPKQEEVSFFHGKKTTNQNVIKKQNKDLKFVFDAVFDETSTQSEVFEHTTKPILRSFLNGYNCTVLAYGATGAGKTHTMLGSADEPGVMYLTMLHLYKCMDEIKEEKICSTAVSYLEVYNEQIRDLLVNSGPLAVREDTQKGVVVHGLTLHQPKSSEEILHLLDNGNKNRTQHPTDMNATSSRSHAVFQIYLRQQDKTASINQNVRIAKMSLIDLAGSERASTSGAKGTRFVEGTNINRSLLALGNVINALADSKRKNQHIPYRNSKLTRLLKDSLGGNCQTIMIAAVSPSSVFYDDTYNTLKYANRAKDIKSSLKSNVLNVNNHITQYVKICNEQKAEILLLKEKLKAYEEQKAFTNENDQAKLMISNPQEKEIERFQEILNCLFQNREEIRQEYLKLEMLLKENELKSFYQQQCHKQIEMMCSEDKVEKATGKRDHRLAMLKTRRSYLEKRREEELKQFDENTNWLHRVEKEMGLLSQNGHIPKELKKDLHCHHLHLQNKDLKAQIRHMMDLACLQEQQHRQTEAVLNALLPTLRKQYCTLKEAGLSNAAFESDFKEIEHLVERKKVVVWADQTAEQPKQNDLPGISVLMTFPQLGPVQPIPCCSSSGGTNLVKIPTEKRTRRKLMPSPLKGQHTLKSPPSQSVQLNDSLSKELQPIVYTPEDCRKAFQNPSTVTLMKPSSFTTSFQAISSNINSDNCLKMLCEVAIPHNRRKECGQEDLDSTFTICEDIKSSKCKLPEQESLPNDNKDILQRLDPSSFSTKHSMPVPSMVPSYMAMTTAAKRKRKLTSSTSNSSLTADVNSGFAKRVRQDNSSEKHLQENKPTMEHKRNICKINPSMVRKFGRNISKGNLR
# T1 sequence (P68363 whole entry partner): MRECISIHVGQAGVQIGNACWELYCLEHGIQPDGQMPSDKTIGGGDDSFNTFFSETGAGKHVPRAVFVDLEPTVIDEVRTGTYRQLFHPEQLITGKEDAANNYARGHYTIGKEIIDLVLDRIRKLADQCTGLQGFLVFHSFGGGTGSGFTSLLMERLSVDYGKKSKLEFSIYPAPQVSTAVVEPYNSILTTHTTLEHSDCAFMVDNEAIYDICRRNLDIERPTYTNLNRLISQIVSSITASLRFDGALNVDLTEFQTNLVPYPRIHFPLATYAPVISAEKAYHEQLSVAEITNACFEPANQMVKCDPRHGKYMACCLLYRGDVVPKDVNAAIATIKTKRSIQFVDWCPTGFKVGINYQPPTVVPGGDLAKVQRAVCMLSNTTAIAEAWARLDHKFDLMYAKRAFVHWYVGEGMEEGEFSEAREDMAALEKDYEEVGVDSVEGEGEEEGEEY
# T1 sequence (Q9BVA1 whole entry partner): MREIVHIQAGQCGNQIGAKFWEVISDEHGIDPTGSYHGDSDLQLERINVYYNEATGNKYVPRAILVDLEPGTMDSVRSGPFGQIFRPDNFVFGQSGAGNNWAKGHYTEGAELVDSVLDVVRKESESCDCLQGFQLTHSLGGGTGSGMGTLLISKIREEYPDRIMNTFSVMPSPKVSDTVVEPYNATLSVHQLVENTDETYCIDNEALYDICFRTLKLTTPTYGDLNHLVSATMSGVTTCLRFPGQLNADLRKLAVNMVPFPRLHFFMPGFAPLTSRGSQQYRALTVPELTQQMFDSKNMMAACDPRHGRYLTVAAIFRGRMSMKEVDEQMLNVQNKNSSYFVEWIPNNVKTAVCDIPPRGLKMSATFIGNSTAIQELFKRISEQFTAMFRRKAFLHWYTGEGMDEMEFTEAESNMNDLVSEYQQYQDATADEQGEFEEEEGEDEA
# Protocol: Inhibition degrees of the compounds of the present invention on recombinant human KIF18A enzyme activity in vitro were determined by the following method. An ADP-Glo™ Kinase Assay kit (article number V9102) from Promega Company was used in this method. Detailed experimental operation can be referred to the instruction of the kit.
# The reaction was carried out in a 384-well microplate. The test compound and the recombinant human KIF18A protein (final concentration of 100 nM, entrusted to GenScript for expression) were added into the wells and incubated at room temperature for 20 minutes, and subsequently, ATP solution (component V915A from the ADP-Glo™ Kinase Assay kit, final concentration of 60 μM) was added to the reaction solution and the obtained system was incubated at room temperature for 20 minutes. Subsequently, 5 μL of ADP-Glo Reagent was added to the reaction system and the obtained system was incubated at room temperature for 50 minutes. Then, 10 μL of Kinase Detection Reagent was added to the reaction system, and the obtained system was incubated at room temperature for 30 minutes. After the incubation was ended, a chemiluminiscence intensity value of each well was determined by a microplate reader in a Luminescence mode.
IC50 (HT-29 cells),IC50 (OVCAR-3 cells),IC50 (recombinant human KIF18A),Structure (SMILES),TGI ([1]; 4 mg/kg po QD),Tumor volume (x ± S) ([1]; 4 mg/kg po QD),TGI ([1]; 8 mg/kg po QD),Tumor volume (x ± S) ([1]; 8 mg/kg po QD),half-life [2],Cmax [2],AUC(0-inf) [2]
–,–,–,"Cc1cc(NC(=O)c2ccc(NS(=O)(=O)CCO)cc2N2CCC3(CC2)CC3)nc(N2CCC(F)(F)CC2)n1 [AMG 650, reference compound]",15.3%,511 ± 49,60.5%,243 ± 35,–,–,–
18.9 nM,6.8 nM,142 nM,"CN1Cc2cc(NC(=O)c3ccc(NS(=O)(=O)CCO)cc3N3CCC4(CC3)CC4)cc(N3CCC(F)(F)CC3)c2C1=O [Example 28, N-(7-(4,4-difluoropiperidin-1-yl)-2-methyl-1-oxoisoindolin-5-yl)-4-((2-hydroxyethyl)sulfamine)-2-(6-azaspiro[2.5]octan-6-yl)benzamide]",–,–,–,–,–,–,–
4.1 nM,13.4 nM,85.7 nM,"CCS(=O)(=O)Nc1ccc(C(=O)Nc2cc(N3CC(F)(F)C3)c3nn(C)cc3c2)c(N2CCC3(CC2)CC3)c1 [Example 24, N-(7-(3,3-difluoroazetidin-1-yl)-2-methyl-2H-indazol-5-yl)-4-(ethylsulfonamido)-2-(6-azaspiro[2.5]octan-6-yl)benzamide]",–,–,–,–,–,–,–
9.2 nM,8.4 nM,184 nM,"CCS(=O)(=O)Nc1ccc(C(=O)Nc2cc3c(c(N4CCC(F)(F)CC4)c2)OCCO3)c(N2CCC3(CC2)CC3)c1 [Example 14, N-(8-(4,4-difluoropiperidin-1-yl)-2,3-dihydrobenzo[b][1,4]dioxin-6-yl)-4-(ethylsulfonamido)-2-(6-azaspiro[2.5]octan-6-yl)benzamide]",–,–,–,–,–,–,–
13.8 nM,16.6 nM,229 nM,"CCS(=O)(=O)Nc1ccc(C(=O)Nc2cc(N3CCC(F)(F)CC3)c3[nH]ncc3c2)c(N2CCC3(CC2)CC3)c1 [Example 21, N-(7-(4,4-difluoropiperidin-1-yl)-1H-indazol-5-yl)-4-(ethylsulfonamido)-2-(6-azaspiro[2.5]octan-6-yl)benzamide]",–,–,–,–,–,–,–

Structure (SMILES),IC50 (HT-29 cells),IC50 (OVCAR-3 cells),IC50 (recombinant human KIF18A),TGI ([1]; 4 mg/kg po QD),Tumor volume (x ± S) ([1]; 4 mg/kg po QD),TGI ([1]; 8 mg/kg po QD),Tumor volume (x ± S) ([1]; 8 mg/kg po QD),half-life [2],Cmax [2],AUC(0-inf) [2]
"CCS(=O)(=O)Nc1ccc(C(=O)Nc2cc(N3CCC(F)(F)CC3)c3nn(C)cc3c2)c(N2CCC3(CC2)CC3)c1 [Example 18, N-(7-(4,4-difluoropiperidin-1-yl)-2-methyl-2H-indazol-5-yl)-4-(ethylsulfonamido)-2-(6-azaspiro[2.5]octan-6-yl)benzamide]",7.7 nM,3.3 nM,–,–,–,–,–,5.2 h,3030 ng/mL,45900 ng·h/mL
"O=C(Nc1cc2c(c(N3CCC(F)(F)CC3)c1)OCC2)c1ccc(NS(=O)(=O)CCO)cc1N1CCC2(CC1)CC2 [Example 29, N-(7-(4,4-difluoropiperidin-1-yl)-2,3-dihydrobenzofuran-5-yl)-4-((2-hydroxyethyl)sulfamine)-2-(6-azaspiro[2.5]octan-6-yl)benzamide]",–,–,316 nM,–,–,–,–,1.24 h,6960 ng/mL,25900 ng·h/mL
